According to ChEMBL document CHEMBL5346971, “Discovery of the First Irreversible HDAC6 Isoform Selective Inhibitor with Potent Anti-Multiple Myeloma Activity” (J Med Chem, 2023):
Activity calls are given as the source filed them. No cut-off for these calls is given here.

Experiments:
[1] = target: T1, Class 1 histone deacetylase (Homo sapiens) (UniProt Q13547+O15379+Q92769+Q9BY41); assay: Irreversible inhibition of class 1 HDAC in human A549 cells assessed as acetyl histone H4 level at 2 uM incubated for 5 hrs followed by drug wash-out for 24 hrs by western blot analysis; format: cell-based
[2] = target: T1, Class 1 histone deacetylase (Homo sapiens); assay: Irreversible inhibition of class 1 HDAC in human A549 cells assessed as acetyl histone H4 level at 2 uM incubated for 5 hrs followed by drug wash-out for 1 hr by western blot analysis; format: cell-based
[3] = target: T1, Class 1 histone deacetylase (Homo sapiens); assay: Irreversible inhibition of class 1 HDAC in human A549 cells assessed as acetyl histone H4 level at 2 uM incubated for 5 hrs followed by drug wash-out and measured immediately after drug wash-out by western blot analysis; format: cell-based
[4] = target: T2, Protein deacetylase HDAC6 (Homo sapiens) (UniProt Q9UBN7); assay: Irreversible inhibition of HDAC6 in human A549 cells assessed as acetyl alpha-tubulin level at 2 uM incubated for 5 hrs followed by drug wash-out for 24 hrs by western blot analysis relative to control; format: cell-based
T2 sequence (whole entry): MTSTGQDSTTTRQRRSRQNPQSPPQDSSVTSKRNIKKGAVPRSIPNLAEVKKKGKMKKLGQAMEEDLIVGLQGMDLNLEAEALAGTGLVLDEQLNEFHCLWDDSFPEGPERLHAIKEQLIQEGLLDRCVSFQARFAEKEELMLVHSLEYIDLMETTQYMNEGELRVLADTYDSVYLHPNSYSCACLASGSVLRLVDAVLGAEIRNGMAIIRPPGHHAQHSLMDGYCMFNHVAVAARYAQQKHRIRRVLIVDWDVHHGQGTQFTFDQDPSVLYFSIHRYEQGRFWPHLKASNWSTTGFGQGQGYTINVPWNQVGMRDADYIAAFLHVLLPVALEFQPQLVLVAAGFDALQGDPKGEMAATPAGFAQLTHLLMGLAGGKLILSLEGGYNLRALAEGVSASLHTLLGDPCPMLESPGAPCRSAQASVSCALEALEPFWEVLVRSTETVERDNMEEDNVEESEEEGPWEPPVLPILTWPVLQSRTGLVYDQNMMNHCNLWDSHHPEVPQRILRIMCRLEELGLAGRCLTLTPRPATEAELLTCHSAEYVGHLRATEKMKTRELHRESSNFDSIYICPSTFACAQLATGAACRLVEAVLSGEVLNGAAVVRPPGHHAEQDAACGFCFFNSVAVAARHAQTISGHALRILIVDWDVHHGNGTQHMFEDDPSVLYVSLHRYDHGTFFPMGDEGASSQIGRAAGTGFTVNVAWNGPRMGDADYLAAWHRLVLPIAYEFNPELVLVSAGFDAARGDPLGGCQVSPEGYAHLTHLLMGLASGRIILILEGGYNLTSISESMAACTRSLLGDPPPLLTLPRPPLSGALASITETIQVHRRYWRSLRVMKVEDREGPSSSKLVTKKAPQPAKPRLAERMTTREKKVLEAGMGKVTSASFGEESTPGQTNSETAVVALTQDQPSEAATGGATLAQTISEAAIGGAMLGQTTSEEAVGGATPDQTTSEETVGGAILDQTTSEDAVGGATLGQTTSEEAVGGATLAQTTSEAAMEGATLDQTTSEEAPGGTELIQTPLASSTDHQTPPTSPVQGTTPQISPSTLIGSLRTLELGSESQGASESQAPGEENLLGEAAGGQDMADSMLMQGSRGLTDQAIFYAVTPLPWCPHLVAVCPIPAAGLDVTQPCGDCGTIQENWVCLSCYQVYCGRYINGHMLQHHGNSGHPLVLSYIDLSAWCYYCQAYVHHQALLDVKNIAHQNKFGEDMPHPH

[5] = target: T2, Protein deacetylase HDAC6 (Homo sapiens); assay: Irreversible inhibition of HDAC6 in human A549 cells assessed as acetyl alpha-tubulin level at 2 uM incubated for 5 hrs followed by drug wash-out for 1 hr by western blot analysis relative to control; format: cell-based
[6] = target: T2, Protein deacetylase HDAC6 (Homo sapiens); assay: Irreversible inhibition of HDAC6 in human A549 cells assessed as acetyl alpha-tubulin level at 2 uM incubated for 5 hrs followed by drug wash-out and measured immediately after drug wash-out by western blot analysis relative to control; format: cell-based
[7] = target: T2, Protein deacetylase HDAC6 (Homo sapiens); assay: Inhibition of HDAC6 in human A549 cells assessed as acetyl alpha-tubulin level at 2 uM incubated for 5 hrs by western blot analysis relative to control; format: cell-based
[8] = target: T1, Class 1 histone deacetylase (Homo sapiens); assay: Inhibition of class 1 HDAC in human A549 cells assessed as acetyl histone H4 level at 2 uM incubated for 5 hrs by western blot analysis relative to control; format: cell-based
[9] = target: T3, Protein deacetylase HDAC6 (Homo sapiens, UniProt Q9UBN7); assay: Inhibition of N-terminal GST-tagged human full length recombinant HDAC6 (1 to 1215 residues) expressed in Sf9 cells using Boc-Lys(acetyI)-AMC as substrate preincubated with enzyme for 1 hr followed by substrate addition and measured after 30 mins by fluorescence based analysis
T3 sequence (Q9UBN7 whole entry): T2 sequence (whole entry)

Histone deacetylase 2 = Histone deacetylase 2 (Homo sapiens, UniProt Q92769); assay: Inhibition of C-terminal FLAG-tagged human full length recombinant HDAC2 (1 to 488 residues) expressed in Sf9 cells using Boc-Lys(acetyI)-AMC as substrate preincubated with enzyme for 1 hr followed by substrate addition and measured after 30 mins by fluorescence based analysis
Homo sapiens = species: Homo sapiens; assay: Selectivity index, ratio of IC50 for inhibition of C-terminal FLAG-tagged human full length recombinant HDAC2 (1 to 488 residues) expressed in Sf9 cells to IC50 for inhibition of N-terminal GST-tagged human full length recombinant HDAC6 (1 to 1215 residues) expressed in Sf9 cells
[10] = target: T2, Protein deacetylase HDAC6 (Homo sapiens); assay: Irreversible inhibition of HDAC6 in human A549 cells assessed as acetyl alpha-tubulin level at 2 uM incubated for 5 hrs followed by drug wash-out for 6 hrs by western blot analysis relative to control; format: cell-based
[11] = Effect on HDAC6 protein expression in human A549 cells assessed as change in HDAC6 protein expression at 2 uM incubated for 5 hrs followed by drug wash-out and measured following drug wash-out by western blot analysis relative to control; format: functional
[12] = Effect on HDAC6 protein expression in human A549 cells assessed as change in HDAC6 protein expression at 2 uM incubated for 5 hrs followed by drug wash-out for 1 hr by western blot analysis relative to control; format: functional
[13] = Effect on HDAC6 protein expression in human A549 cells assessed as change in HDAC6 protein expression at 2 uM incubated for 5 hrs followed by drug wash-out for 6 hrs by western blot analysis relative to control; format: functional
[14] = Effect on HDAC6 protein expression in human A549 cells assessed as change in HDAC6 protein expression at 2 uM incubated for 5 hrs followed by drug wash-out for 24 hrs by western blot analysis relative to control; format: functional
RPMI-8226 = assay: Antiproliferative activity against human RPMI-8226 cells assessed as inhibition of cell proliferation incubated for 48 hrs by CCK8 assay; format: functional, cell-based; conditions: RPMI-8226, 48 h
U-266 = assay: Antiproliferative activity against human U-266 cells assessed as inhibition of cell proliferation incubated for 48 hrs by CCK8 assay; format: functional, cell-based; conditions: U-266, 48 h
MM1.S = assay: Antiproliferative activity against human MM1.S cells assessed as inhibition of cell proliferation incubated for 48 hrs by CCK8 assay; format: functional, cell-based
[15] = Cytotoxicity against human L02 cells assessed as inhibition of cell proliferation incubated for 48 hrs by CCK8 assay; format: toxicity, cell-based
[16] = target: T1, Class 1 histone deacetylase (Homo sapiens); assay: Irreversible inhibition of class 1 HDAC in human A549 cells assessed as acetyl histone H4 level at 2 uM incubated for 5 hrs followed by drug wash-out for 6 hrs by western blot analysis; format: cell-based
[17] = target: T1, Class 1 histone deacetylase (Homo sapiens); assay: Irreversible inhibition of class 1 HDAC in human A549 cells assessed as acetyl histone H3 level at 2 uM incubated for 5 hrs followed by drug wash-out and measured immediately after drug wash-out by western blot analysis; format: cell-based
[18] = target: T1, Class 1 histone deacetylase (Homo sapiens); assay: Irreversible inhibition of class 1 HDAC in human A549 cells assessed as acetyl histone H3 level at 2 uM incubated for 5 hrs followed by drug wash-out for 1 hr by western blot analysis; format: cell-based
[19] = target: T1, Class 1 histone deacetylase (Homo sapiens); assay: Irreversible inhibition of class 1 HDAC in human A549 cells assessed as acetyl histone H3 level at 2 uM incubated for 5 hrs followed by drug wash-out for 6 hrs by western blot analysis; format: cell-based
[20] = target: T1, Class 1 histone deacetylase (Homo sapiens); assay: Irreversible inhibition of class 1 HDAC in human A549 cells assessed as acetyl histone H3 level at 2 uM incubated for 5 hrs followed by drug wash-out for 24 hrs by western blot analysis; format: cell-based
[21] = target: T2, Protein deacetylase HDAC6 (Homo sapiens); conditions: A549, dose 80.0 nM, time 5.0 hrs
[22] = target: T2, Protein deacetylase HDAC6 (Homo sapiens); assay: Inhibition of HDAC6 in human A549 cells assessed as acetyl alpha-tubulin level at 10 uM incubated for 5 hrs by western blot analysis relative to control; format: cell-based
[23] = target: T1, Class 1 histone deacetylase (Homo sapiens); assay: Inhibition of class 1 HDAC in human A549 cells assessed as acetyl histone H4 level at 10 uM incubated for 5 hrs by western blot analysis relative to control; format: cell-based

Chain of Histone deacetylase 2 (Q92769 whole entry, the tested form may be a part): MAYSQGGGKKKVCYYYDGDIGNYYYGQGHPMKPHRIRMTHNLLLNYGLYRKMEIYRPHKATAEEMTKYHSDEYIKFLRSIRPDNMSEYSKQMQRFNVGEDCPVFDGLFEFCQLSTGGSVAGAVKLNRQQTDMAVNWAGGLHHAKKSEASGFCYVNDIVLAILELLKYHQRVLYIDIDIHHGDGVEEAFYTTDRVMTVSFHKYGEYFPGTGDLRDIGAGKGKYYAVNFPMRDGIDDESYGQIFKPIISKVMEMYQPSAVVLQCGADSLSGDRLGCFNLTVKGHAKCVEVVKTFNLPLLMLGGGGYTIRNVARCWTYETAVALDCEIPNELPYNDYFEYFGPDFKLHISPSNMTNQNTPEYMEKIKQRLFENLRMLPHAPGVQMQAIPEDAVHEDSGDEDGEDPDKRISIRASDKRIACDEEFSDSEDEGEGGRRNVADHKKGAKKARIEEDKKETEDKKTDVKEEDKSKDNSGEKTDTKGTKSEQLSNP
T1 sequence (O15379 whole entry, looked up): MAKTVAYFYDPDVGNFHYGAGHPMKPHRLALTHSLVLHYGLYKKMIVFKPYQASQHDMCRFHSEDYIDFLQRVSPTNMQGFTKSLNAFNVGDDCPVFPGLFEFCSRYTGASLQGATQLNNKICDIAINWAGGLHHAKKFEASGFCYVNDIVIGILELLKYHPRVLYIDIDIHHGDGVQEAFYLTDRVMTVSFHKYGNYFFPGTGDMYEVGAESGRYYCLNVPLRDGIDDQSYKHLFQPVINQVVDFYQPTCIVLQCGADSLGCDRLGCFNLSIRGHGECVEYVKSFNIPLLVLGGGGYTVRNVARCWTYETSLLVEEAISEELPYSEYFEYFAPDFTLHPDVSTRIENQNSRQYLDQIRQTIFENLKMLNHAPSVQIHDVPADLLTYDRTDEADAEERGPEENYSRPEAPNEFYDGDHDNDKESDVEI
T1 sequence (Q13547 whole entry, looked up): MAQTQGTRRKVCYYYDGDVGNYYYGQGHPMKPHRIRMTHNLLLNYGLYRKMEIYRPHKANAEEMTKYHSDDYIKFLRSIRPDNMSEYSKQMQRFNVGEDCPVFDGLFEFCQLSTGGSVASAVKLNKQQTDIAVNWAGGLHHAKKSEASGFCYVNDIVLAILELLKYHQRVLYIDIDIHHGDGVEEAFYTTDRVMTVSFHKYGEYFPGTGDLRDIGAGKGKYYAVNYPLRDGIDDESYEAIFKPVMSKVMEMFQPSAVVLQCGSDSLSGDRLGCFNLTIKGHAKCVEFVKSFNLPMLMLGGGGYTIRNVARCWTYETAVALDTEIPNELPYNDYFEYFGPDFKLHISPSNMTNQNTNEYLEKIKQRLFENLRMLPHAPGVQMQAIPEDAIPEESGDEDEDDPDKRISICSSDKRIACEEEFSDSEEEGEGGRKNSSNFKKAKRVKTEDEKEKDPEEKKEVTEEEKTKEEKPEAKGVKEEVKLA
T1 sequence (Q92769 whole entry, looked up): as the sequence (Q92769 whole entry, the tested form may be a part) above
T1 sequence (Q9BY41 whole entry, looked up): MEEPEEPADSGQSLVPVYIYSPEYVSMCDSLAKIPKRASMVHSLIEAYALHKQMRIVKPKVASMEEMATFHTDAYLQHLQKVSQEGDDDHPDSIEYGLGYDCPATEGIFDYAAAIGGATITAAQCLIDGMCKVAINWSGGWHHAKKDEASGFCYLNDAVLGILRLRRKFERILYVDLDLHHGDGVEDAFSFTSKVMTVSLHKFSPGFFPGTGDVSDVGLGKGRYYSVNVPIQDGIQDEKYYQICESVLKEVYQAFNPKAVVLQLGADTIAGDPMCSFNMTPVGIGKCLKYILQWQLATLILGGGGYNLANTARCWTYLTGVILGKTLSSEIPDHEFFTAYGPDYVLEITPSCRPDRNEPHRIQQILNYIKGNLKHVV

| SMILES | fold change (FC) [7] | fold change (FC) [8] | IC50 [9] [µM] | IC50 (Histone deacetylase 2) [µM] | Ratio IC50 (Homo sapiens) | IC50 (RPMI-8226) [µM] | IC50 (U-266) [µM] | IC50 (MM1.S) [µM] | IC50 at 48 h [15] [µM] | further results |
| --- | --- | --- | --- | --- | --- | --- | --- | --- | --- | --- |
| O=C(NO)c1ccc(Oc2no[n+]([O-])c2S(=O)(=O)c2ccccc2)cc1 | 2.1 | 0.5 | 0.16 | 3.4 | 21.3 | 1.2 | 1.3 | 1.1 | 14.3 | fold change (FC) [1]: 0.6; fold change (FC) [2]: 1.6; fold change (FC) [3]: 1; fold change (FC) [4]: 2.2; fold change (FC) [5]: 4.4; fold change (FC) [6]: 3.9; fold change (FC) [10]: 3.7; fold change (FC) [11]: 0.9; fold change (FC) [12]: 1.1; fold change (FC) [13]: 1.1; fold change (FC) [14]: 1.2; fold change (FC) [16]: 0.9; fold change (FC) [17]: 1.1; fold change (FC) [18]: 1.2; fold change (FC) [19]: 0.9; fold change (FC) [20]: 0.7 |
| CN1CCc2c(c3ccccc3n2Cc2ccc(C(=O)NO)cc2)C1 | – | – | – | – | – | – | – | – | – | inhibition [21]: Active |
| O=C(NO)c1cccc(Oc2no[n+]([O-])c2S(=O)(=O)c2ccccc2)c1 | 1.1 | 0.2 | 39.2 | 8.1 | 0.2 | – | – | – | – | – |
| COc1cc(C(=O)NO)ccc1Oc1no[n+]([O-])c1S(=O)(=O)c1ccccc1 | 1.3 | 0.4 | 2.7 | 5.3 | 2 | – | – | – | – | – |
| O=C(/C=C/COc1no[n+]([O-])c1S(=O)(=O)c1ccccc1)NO | 0.8 | 0.5 | 10.4 | 6.6 | 0.6 | – | – | – | – | – |
| O=S(=O)(c1ccccc1)c1c(OCc2ccc(CO)cc2)no[n+]1[O-] | – | – | – | – | – | 1.1 | 1.5 | 0.91 | 8.4 | – |
| O=C(/C=C/c1ccc(Oc2no[n+]([O-])c2S(=O)(=O)c2ccccc2)cc1)NO | 2.7 | 1.7 | 0.31 | 1 | 3.2 | – | – | – | – | – |
| O=C(CCCCCOc1no[n+]([O-])c1S(=O)(=O)c1ccccc1)NO | 3.8 | 2.1 | 0.047 | – | – | 0.48 | 0.69 | 0.43 | 8.7 | fold change (FC) [1]: 1.8; fold change (FC) [2]: 4.7; fold change (FC) [3]: 4.4; fold change (FC) [4]: 2.5; fold change (FC) [5]: 2.2; fold change (FC) [6]: 2 |
| O=S(=O)(c1ccccc1)c1c(OCCCCCCO)no[n+]1[O-] | 1.3 | 1.3 | – | – | – | – | – | – | – | fold change (FC) [22]: 1.2; fold change (FC) [23]: 0.8 |
| O=C(NO)c1ccc(COc2nonc2S(=O)(=O)c2ccccc2)cc1 | – | – | – | – | – | 6.1 | > 10 | 6.4 | > 30 | – |
